Test results: the Deep4Chem optical property database

Test: solvent given as SMILES

SMILES: CC(C)(C)OC(=O)NC(Cc1ccccc1)C(=O)OCc1ccc2c3cccc4cccc(c5cccc1c52)c43 (centres undefined)
- emission maximum (in CCO): 447 nm

SMILES: CC1=[N+]2C(=C(c3ccc(C(=O)c4ccccc4)cc3)c3ccc(C)n3[B-]2(F)F)C=C1c1cc2n(c1)[B-](F)(F)[N+]1=CC=CC1=C2c1c(C)cc(C)cc1C
- emission maximum (in C1CCCCC1): 645 nm
- emission maximum (in CCOC(C)=O): 664 nm

SMILES: C[Si]1(C)c2ccccc2-c2ccccc21
- emission maximum (in ClCCl): 359 nm

SMILES: CC[n+]1nc2cc3c4c(c2c2ccccc21)CCCN4CCC3
- emission maximum (in O): 570 nm

SMILES: CCOC(=O)c1sc(SC)c2c(=O)[nH]nnc12
- emission maximum (in C1CCOC1): 465 nm
- emission maximum (in CC#N): 478 nm
- emission maximum (in CCO): 492 nm
- emission maximum (in CN(C)C=O): 478 nm
- emission maximum (in CO): 499 nm
- emission maximum (in CS(C)=O): 491 nm

SMILES: O=P1(c2ccccc2)c2cccc3ccc4ccc1n4c23 (centres undefined)
- emission maximum (in ClCCl): 496 nm

SMILES: Cc1ccc2ccc3cccc4ccc1c2c34
- emission maximum (in CCCCCC): 377 nm
- emission maximum (in CO): 377 nm
- emission maximum (in ClCCl): 378 nm

SMILES: Cc1nc2c(ccc3c2sc(/C=C/c2ccc(N(C)C)cc2)[n+]3C)s1
- emission maximum (in CO): 600 nm
- emission maximum (in ClC(Cl)Cl): 603 nm

SMILES: CCCCCCCCOC(=O)c1ccc(-c2cc3ccc4cc(-c5ccc(C(=O)OCCCCCCCC)cc5)cc5ccc(c2)c3c45)cc1
- emission maximum (in Cc1ccccc1): 421 nm

SMILES: CC(=O)c1c(N[C@@H](CS)C(=O)O)c2ccc(N(C)C)cc2oc1=O
- emission maximum (in ClCCl): 424 nm

SMILES: CC(C)(C)c1ccc2c(c1)sc1[n+]2[B-](F)(F)n2c(c3cccc4c(Br)ccc2c43)=C1C#N
- emission maximum (in C1CCOC1): 563 nm
- emission maximum (in CC#N): 558 nm
- emission maximum (in CCCCCC): 558 nm
- emission maximum (in Cc1ccccc1): 563 nm
- emission maximum (in ClCCl): 560 nm

SMILES: Cc1ccc(/C2=c3\cc/c(o3)=C(\c3ccc(C)cc3)c3ccc([nH]3)-c3ccc4n3[P-](=O)(=O)[N+]3=C(C=CC3=C4c3ccc[nH]3)c3ccc2[nH]3)cc1
- emission maximum (in ClC(Cl)Cl): 740 nm

SMILES: Cc1ccccc1-c1ccccc1C
- emission maximum (in C1CCCCC1): 318.98 nm

SMILES: CN(C)CCCN1c2ccccc2Sc2ccc(C(F)(F)F)cc21
- emission maximum (in CC#N): 470 nm
- emission maximum (in CO): 463 nm
- emission maximum (in O): 475 nm

SMILES: CC1=C(I)C(C)=[N+]2C1=C(c1c(-c3ccccn3)nc3ccccn13)c1c(C)cc(C)n1[B-]2(F)F
- emission maximum (in ClCCl): 558 nm

SMILES: COc1ccc(O[B-]2(Oc3ccc(OC)cc3)n3c(C)cc(C)c3C(c3ccc(I)cc3)=C3C(C)=CC(C)=[N+]32)cc1
- emission maximum (in ClC(Cl)Cl): 518.49 nm

SMILES: CCCCCCC1(CCCCCC)c2cc(-c3ccc(-c4ccc(-c5ccc(-c6ccc7c(c6)C(CCCCCC)(CCCCCC)c6cc(-n8c9ccccc9c9ccccc98)ccc6-7)s5)c5nsnc45)s3)ccc2-c2ccc(-n3c4ccccc4c4ccccc43)cc21
- emission maximum (in ClCCl): 611 nm

SMILES: COc1ccc(C(=Cc2ccc(C=O)cc2)c2ccc(OC)cc2)cc1
- emission maximum (in C1CCOC1): 396 nm

SMILES: N#Cc1cc(C#N)c(-n2c3ccccc3c3cc(-c4cccc5c4c4ccccc4n5-c4cc(-n5c6ccccc6c6ccccc65)c(C#N)cc4C#N)ccc32)cc1-n1c2ccccc2c2ccccc21
- emission maximum (in O=P(c1ccccc1)(c1ccccc1)c1ccccc1Oc1ccccc1P(=O)(c1ccccc1)c1ccccc1): 448 nm

SMILES: O=C(O)CC[N+]1=c2cc3c(cc2CCC1)=Cc1c(c2cc4c5c(c2oc1=O)CCCN5CCC4)O3
- emission maximum (in CC#N): 683 nm
- emission maximum (in CO): 679 nm
- emission maximum (in ClCCl): 675 nm
- emission maximum (in O): 684 nm

SMILES: CCC1=C(C)C2=C(c3c4ccccc4cc4ccccc34)c3c(C)c(CC)c(C)n3[B-](F)(F)[N+]2=C1C
- emission maximum (in CC#N): 537 nm
- emission maximum (in CCCCCC): 539 nm
- emission maximum (in CCO): 539 nm
- emission maximum (in CN(C)C=O): 541 nm
- emission maximum (in Cc1ccccc1): 544 nm
- emission maximum (in ClCCl): 543 nm

SMILES: CN(C)c1ccc2c(c1)C(C)(C)C1=CC(=[N+](C)C)C=CC1=C2
- emission maximum (in CO): 620 nm
- emission maximum (in O): 621 nm

SMILES: CC(C)(C)c1ccc(-c2nc(-c3ccc(C(C)(C)C)cc3)nc(-c3ccc(-n4c5ccccc5c5c6oc7ccccc7c6ccc54)c(C#N)c3)n2)cc1
- emission maximum (in C1CCOC1): 450.74 nm

SMILES: CCOC(=O)c1sc2nc(-c3ccccc3)c(C)c(C#N)c2c1N
- emission maximum (in C1COCCO1): 554 nm
- emission maximum (in CC#N): 570 nm
- emission maximum (in CCO): 580 nm
- emission maximum (in CCOC(C)=O): 558 nm
- emission maximum (in ClC(Cl)Cl): 550 nm
- emission maximum (in c1ccccc1): 549 nm

SMILES: O=C(O)CCCOc1cccc(-c2c3nc(cc4ccc([nH]4)c(-c4cccc(OCCCC(=O)O)c4)c4nc(cc5ccc2[nH]5)CC4)C=C3)c1
- emission maximum (in CS(C)=O): 649 nm

SMILES: Nc1ncnc2c1c(C#Cc1ccc3ccccc3c1)cn2[C@H]1C[C@H](O)[C@@H](CO)O1
- emission maximum (in CC#N): 400 nm
- emission maximum (in CCO): 371 nm
- emission maximum (in CCOC(C)=O): 383 nm
- emission maximum (in CO): 377 nm
- emission maximum (in ClC(Cl)Cl): 374 nm

SMILES: COc1ccc(N(c2ccc(OC)cc2)c2ccc3c4cccc5c(N(c6ccc(OC)cc6)c6ccc(OC)cc6)ccc(c6cccc2c63)c54)cc1
- emission maximum (in C1CCCCC1): 551 nm
- emission maximum (in C1CCOC1): 583 nm
- emission maximum (in CC#N): 598 nm
- emission maximum (in Cc1ccccc1): 574 nm
- emission maximum (in ClCCl): 591 nm
